Data published in PubChem BioAssay (NCI).
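How tested: cells in 96-well plates exposed to compound for 48 hours at five concentrations. At the TGI there is no net growth.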

Legend:
Test in all cases: NCI anticancer screen, dose series, 48 h
786-0 renal = test system: 786-0 renal
A498 renal = test system: A498 renal
CCRF-CEM leukemia = test system: CCRF-CEM leukemia
COLO 205 colon = test system: COLO 205 colon
EKVX NSCLC = test system: EKVX NSCLC
HCC-2998 colon = test system: HCC-2998 colon
HL-60(TB) leukemia = test system: HL-60(TB) leukemia
HOP-92 NSCLC = test system: HOP-92 NSCLC
IGROV1 ovarian = test system: IGROV1 ovarian
M14 melanoma = test system: M14 melanoma
NCI-H226 lung = test system: NCI-H226 lung
NCI-H23 lung = test system: NCI-H23 lung
OVCAR-3 ovarian = test system: OVCAR-3 ovarian
OVCAR-8 ovarian = test system: OVCAR-8 ovarian
SF-295 CNS = test system: SF-295 CNS
SN12C renal = test system: SN12C renal
SNB-19 CNS = test system: SNB-19 CNS
SNB-75 CNS = test system: SNB-75 CNS
U251 CNS = test system: U251 CNS
UACC-62 melanoma = test system: UACC-62 melanoma

| SMILES | TGI (786-0 renal) [µM] | TGI (A498 renal) [µM] | TGI (CCRF-CEM leukemia) [µM] | TGI (COLO 205 colon) [µM] | TGI (EKVX NSCLC) [µM] | TGI (HCC-2998 colon) [µM] | TGI (HL-60(TB) leukemia) [µM] | TGI (HOP-92 NSCLC) [µM] | TGI (IGROV1 ovarian) [µM] | TGI (M14 melanoma) [µM] | TGI (NCI-H226 lung) [µM] | TGI (NCI-H23 lung) [µM] | TGI (OVCAR-3 ovarian) [µM] | TGI (OVCAR-8 ovarian) [µM] | TGI (SF-295 CNS) [µM] | TGI (SN12C renal) [µM] | TGI (SNB-19 CNS) [µM] | TGI (SNB-75 CNS) [µM] | TGI (U251 CNS) [µM] | TGI (UACC-62 melanoma) [µM] |
| --- | --- | --- | --- | --- | --- | --- | --- | --- | --- | --- | --- | --- | --- | --- | --- | --- | --- | --- | --- | --- |
| Cc1ccc(N=C2OP(=O)(Nc3ccc(C)cc3)Oc3ccccc32)cc1 (stereo not given) | > 100 | > 100 | > 100 | > 100 | > 100 | > 100 | > 100 | 90.5 | > 100 | > 100 | > 100 | > 100 | > 100 | > 100 | > 100 | > 100 | > 100 | > 100 | > 100 | > 100 |
| COn1oc(=O)c2ccccc21 | > 100 | > 100 | > 100 | > 100 | > 100 | > 100 | > 100 | > 100 | > 100 | > 100 | > 100 | > 100 | > 100 | > 100 | > 100 | > 100 | > 100 | > 100 | > 100 | > 100 |
| NNC(=O)CC(=O)Nc1ccc(S(=O)(=O)c2ccc(NC(=O)CC(=O)NN)cc2)cc1 | > 100 | > 100 | > 100 | > 100 | > 100 | > 100 | > 100 | > 100 | > 100 | > 100 | > 100 | > 100 | > 100 | > 100 | > 100 | > 100 | > 100 | > 100 | > 100 | > 100 |
| Cc1cccc(N=Cc2ccc(N(CCC#N)S(=O)(=O)c3ccccc3)cc2C)c1 | > 100 | > 100 | > 100 | > 100 | > 100 | > 100 | > 100 | > 100 | > 100 | > 100 | > 100 | > 100 | > 100 | > 100 | > 100 | > 100 | > 100 | > 100 | > 100 | > 100 |
| Brc1ccc(C=NC23CC4CC(CC(C4)C2)C3)cc1 | > 100 | > 100 | > 100 | > 100 | > 100 | > 100 | > 100 | > 100 | > 100 | > 100 | > 100 | > 100 | > 100 | > 100 | > 100 | > 100 | > 100 | > 100 | > 100 | > 100 |
| N#Cc1sc2c(c1OC(=O)c1ccc(Cl)cc1Cl)c(=O)n(-c1ccccc1)c(=S)n2-c1ccccc1 | 77.3 | 61.2 | 26.7 | 42.2 | 65.1 | > 100 | 46.7 | 68.9 | 38.6 | 36.6 | 66.8 | 50.8 | 76.3 | > 100 | 81.2 | 57.8 | 60.6 | > 100 | 75.8 | 40.4 |
